In US20020028849A1, “Use of retinol in assisted-reproduction protocols” (priority 2000, published 2002):

Tests used:
[1] = tested on: superovulated ewes (embryos recovered at the morula stage); experiment: Experiment 1: retinoid treatment of superovulated ewes, in vitro development of recovered morula-stage embryos; type: in vivo, sheep; conditions: for embryo quality score (grade 1=excellent to 4=degenerate) immediately after collection / in vitro blastocyst formation / embryonic hatching rate in vitro: ROH 500,000 IU, RA 15 mg; for embryo quality score (grade 1=excellent to 4=degenerate) immediately after collection / in vitro blastocyst formation: CIS 15 mg on first and last day of FSH; for embryo quality score (grade 1=excellent to 4=degenerate) immediately after collection: morula stage; for in vitro blastocyst formation: morulae cultured 72 h in TCM 199; for embryonic hatching rate in vitro: CIS 15 mg, morulae cultured 72 h
Method: (§1) Referring now to FIGS. 1 and 2, a series of experiments were carried out to examine the effect of retinoid administration on superovulated sheep. In these experiments, the estrous cycles of sexually mature crossbred ewes were synchronized using progestin implants (Synchromate B) combined with prostaglandin F2-alpha (Lutalyse) injections, and superovulation was induced by multiple FSH injections. Briefly, animals were administered one progestin implant and 6 days later received two Lutalyse injections (15 mg i.m.) 12 hours apart. Superovulation was induced using a total of 24 units of FSH administered twice daily in decreasing doses over 3 days (5.5, 4.4, 3.3 units per injection, respectively) beginning 9-11 days after implant administration. Retinoid treatments were administered on the first and last day of FSH injections. Implants were removed at the time of the fifth FSH injection, and animals were checked for estrus 24 hours later. […] All animals were maintained on high-quality hay and fed ad libitum, with free-choice access to a sheep and goat mineral premix that contained 1 million IU vitamin A per pound.
In the first experiment, performed under decreasing day length (fall), 25 ewes were randomly assigned to one of the following treatments: (1) all-trans retinol (ROH; 500,000 IU, n=6); (2) all-trans retinoic acid (RA; 15 mg, n=6); (3) 9-cis retinoic acid (CIS; 15 mg, n=7); or (4) vehicle (Control; n=6), which was corn oil. Animals were surgically ovohysterectomized at 144 hours post-implant removal, and uteri were gently flushed twice with culture medium (tissue culture medium 199 [TCM 199]) to collect morula stage embryos. Two ewes from the RA group wer dropped from the study: one because of a total lack of response to the FSH treatment, the other because of overstimulation resulting in more than 50 ovulations with none of the ova fertilizing. This left 4 animals in the RA group, 5 in each of the ROH and Control groups, and 7 in the CIS group.
Embryos (morulae) collected in experiments 1 and 2 were categorized according to morphology, developmental stage, and quality based on a procedure developed for bovine embryos. See, Lindner and Wright, Theriogenology 1983; 20:407-416. Quality grades ranged from 1 to 4, with 1=excellent, 2=good, 3=poor, and 4=degenerate. One individual, who was unaware of treatments at the time, performed all of the grading.
In the first two experiments, morula-stage embryos were cultured in TCM 199 with Earle's salt supplemented with 10% FBS and 1 mM glutamine. See, Bavister BD. Studies on the developmental blocks in cultured hamster embryos. In: Bavister BD (ed.), The Mammalian Preimplantation Embryo: Regulation of Growth and Differentiation in vitro. New York:Plenum Press; 1987:219-249. The FBS had been twice stripped of low molecular weight molecules with charcoal, and retinol concentrations were below detection levels as determined by fluorescent analysis. See, Selvaraj and Susheela, Clin Chim Acta 1970; 27:165-170. In the third experiment, 1- to 4-cell embryos were cultured in SOF supplemented with 3 mg/ml BSA and essential and nonessential amino acids. See, Carolan et al., Theriogenology 1995; 43:1115-1128. Both media were prepared weekly, filtered through a 0.2 um filter, and allowed to equilibrate for 2 hours in a humidified atmosphere at 38.5° C. containing 5% CO2 in air.
Morula-stage embryos (experiments 1 and 2) were washed a minimum of three times in the outer well of organ culture dishes and then transferred with a minimum amount of medium into the inner well, which contained 3 ml of TCM 199. Embryos from each ewe were cultured in one dish, and there were no significant differences in the average number of embryos per dish between treatments. Embryos were cultured for 96 hours and observed daily for blastocyst formation and complete hatching from the zona pellucida. No further development was observed after 72 hours in culture, and all data presented reflect that time period. […]

[2] = cited from earlier work
[3] = tested on: recipient ewes receiving embryos from treated donor ewes; experiment: Pregnancy rates after transfer of frozen embryos from retinol-treated superovulated ewes; type: in vivo, sheep
Source text: Twenty-four ewes were synchronized, superovulated and administered treatments, as described previously (Eberhardt, Will and Godkin. Biol Reprod 60, 1483-1487, 1999). Briefly, animals received a progestagen implant and six days later received two injections of prostaglandin F2-alpha (Lutalyse, Upjohn Co. Kalamazoo, Mich.) twelve hours apart. Superovulation was induced with 24 units of porcine follicle stimulating hormone (FSH, Sioux Biochemical, Sioux City, Iowa) in decreasing doses over 3 days beginning 9-11 days after implant administration. All-trans retinol was administered to twelve ewes in corn oil at 500,000 IU per injection on the first and last day of FSH injections. Control ewes (12) received corn oil without retinol.
Embryos at the morula stage of development (168 h post implant removal) were collected by gently flushing the uterus with phosphaste-buffered saline+2% bovine serum albumin (BSA) following surgical hysterectomy. Embryos were frozen by conventional methods (Leibo. Theriogenology 21: 767. 1984) using ethylene glycol as the cryoprotectant in a programmable freezer and stored in liquid N2. After three months, embryos were thawed briefly (30 seconds) at 37° C. and two embryos were transferred directly into the uterine horn of synchronized recipient ewes. Seven recipient ewes received embryos from retinol-treated ewes and 11 recipient ewes received embryos from control ewes. Pregnancy rates were determined by ultrasonography 30-40 days after transfer.

[4] = tested on: superovulated ewes (embryos recovered at the morula stage); experiment: Experiment 2: ROH treatment of superovulated ewes (winter), in vitro development of morula-stage embryos; type: in vivo, sheep
Method: as §1
The second experiment was a repetition of the first, with the exceptions that it was performed under increasing day length (winter) and only the ROH and Control treatments were administered (in combination with FSH) to 24 ewes (12 per treatment) not used in the previous experiment. One ewe from the Control group was dropped from the study for failure to respond to FSH treatment. […]
(§2) In the first two experiments, morula-stage embryos were cultured in TCM 199 with Earle's salt supplemented with 10% FBS and 1 mM glutamine. […] The FBS had been twice stripped of low molecular weight molecules with charcoal, and retinol concentrations were below detection levels as determined by fluorescent analysis. […]
(§3) Data were checked for normality and analyzed using the Statistical Analysis System (SAS Institute Inc., Cary, N.C.). […]

[5] = tested on: superovulated ewes (1- to 4-cell embryos); experiment: Experiment 3: ROH treatment of superovulated ewes, in vitro development of 1- to 4-cell embryos; type: in vivo, sheep; conditions: 1- to 4-cell embryos cultured in SOF
Method: as §1
The third study involved two identical experiments performed sequentially in the fall and winter. Results were not different between seasons, and the data were combined. A total of 24 ewes, not used in the previous experiments, received either ROH (n=12) or Control (n=12) treatment in combination with FSH, followed by natural mating at estrus, as in experiment 2. At 84 hours post-implant removal, ewes were salphincectomized and oviducts gently flushed with culture medium in order to recover 1- to 4-cell embryos.
as §2, with “glutamine. See, Bavister BD.” for “glutamine.”
as §3

[6] = tested on: in vitro produced bovine embryos (presumptive zygotes); experiment: In vitro retinol treatment of presumptive zygotes, blastocyst formation; type: cell-based; conditions: 7-8 days culture
Method: The effects of retinol and retinoic acid on early embryonic development of in vitro produced bovine embryos were investigated. Oocytes and their surrounding cumulus cells were collected from bovine ovaries, matured in vitro for 24 h and fertilized by standard procedures for 8-10 h. Presumptive zygotes were denuded of cumulus cells, washed and cultured in modified synthetic oviduct fluid (a standard culture medium) in the presence or absence of retinol ([…]) at 38.5° C. in a humidified atmosphere of 5% CO2 in air. Embryos were cultured for 7-8 days.
Blastocyst (a fluid filled ball of approximately 100 cells, containing a inner cell mass which gives rise to the fetus and a trophoblast which gives rise to the placenta) formation was used as an end point for in vitro development. The above experiment was performed three times using 210 embryos in each treatment group with 70 embryos/group (630 total, 210/treatment). Embryonic development to the blastocyst stage, expressed as % blastocyst/cleaved embryos, was control (no retinol)=28.33%, 1 uM Retinol=48.66%, 10 uM Retinol=57.33%.

| SMILES | embryo quality score (grade 1=excellent to 4=degenerate) immediately after collection [1] | in vitro blastocyst formation [1] [%] | embryonic hatching rate in vitro [1] [%] | fold increase in in vitro blastocyst formation compared to RA, CIS or Control animals ([1]; p<0.05) | solubility in ethanol, methanol, ether, fats, and oil ([2]; ethanol, methanol, ether, fats, oil) | solubility in water or aqueous salt solutions ([2]; water or aqueous salt solutions) | pregnancy rate of recipient ewes ([3]; donors given 500,000 IU per injection on first and last day of FSH, two frozen-thawed embryos transferred, ultrasonography 30-40 days after transfer) [%] | number of the six pregnant recipient ewes carrying twins ([3]; embryos from retinol-treated donor ewes) | survival of all transferred embryos ([3]; embryos from retinol-treated donor ewes, 30-40 days after transfer) [%] | fold increase in hatching rate in comparison with vehicle treatment [4] [fold] | hatching rate ([4]; ROH treatment of donor ewes, p<0.05) [%] | percentage of embryos that formed blastocysts ([4]; ROH treatment of donor ewes, winter, n=243 embryos) [%] | blastocyst hatching [5] [%] | blastocyst formation ([5]; n=230 embryos, p<0.05) [%] | embryos that progressed through the 8-cell in vitro block ([5]; p<0.05) [%] | embryonic development to the blastocyst stage, % blastocyst/cleaved embryos ([6]; 1 uM Retinol in modified synthetic oviduct fluid) [%] | embryonic development to the blastocyst stage, % blastocyst/cleaved embryos ([6]; 10 uM Retinol in modified synthetic oviduct fluid) [%] |
| --- | --- | --- | --- | --- | --- | --- | --- | --- | --- | --- | --- | --- | --- | --- | --- | --- | --- |
| CC1=C(/C=C/C(C)=C\C=C\C(C)=C\C(=O)O)C(C)(C)CCC1 [CIS, 9-cis retinoic acid] | 2.4±0.2 | 33 | 38 | – | – | – | – | – | – | – | – | – | – | – | – | – | – |
| CC1=C(/C=C/C(C)=C/C=C/C(C)=C/C(=O)O)C(C)(C)CCC1 [RA, all-trans retinoic acid] | – | 27 | 55 | – | – | – | – | – | – | – | – | – | – | – | – | – | – |
| CC1=C(/C=C/C(C)=C/C=C/C(C)=C/CO)C(C)(C)CCC1 [ROH, all-trans retinol] | 1.9±0.1 | 72 | 73 | greater than 2 fold | soluble | practically insoluble | 86 | five | 78.6 | ~3 | 70 | 70 | 71 | 79 | 94 | 48.66 | 57.33 |
